The source of these data is patent US8729082B2, “Substituted imidazoquinoxalines” (Bayer Intellectual Property GmbH, priority 2009, dated 2014).

The experiment deals with T1, human kinase Mps-1 (Homo sapiens, UniProt P33981).
T1 construct: N-terminally GST-tagged human full length recombinant Mps-1 kinase; purchased Invitrogen, Karslruhe, Germany PV4071
T1 sequence (P33981 1-857): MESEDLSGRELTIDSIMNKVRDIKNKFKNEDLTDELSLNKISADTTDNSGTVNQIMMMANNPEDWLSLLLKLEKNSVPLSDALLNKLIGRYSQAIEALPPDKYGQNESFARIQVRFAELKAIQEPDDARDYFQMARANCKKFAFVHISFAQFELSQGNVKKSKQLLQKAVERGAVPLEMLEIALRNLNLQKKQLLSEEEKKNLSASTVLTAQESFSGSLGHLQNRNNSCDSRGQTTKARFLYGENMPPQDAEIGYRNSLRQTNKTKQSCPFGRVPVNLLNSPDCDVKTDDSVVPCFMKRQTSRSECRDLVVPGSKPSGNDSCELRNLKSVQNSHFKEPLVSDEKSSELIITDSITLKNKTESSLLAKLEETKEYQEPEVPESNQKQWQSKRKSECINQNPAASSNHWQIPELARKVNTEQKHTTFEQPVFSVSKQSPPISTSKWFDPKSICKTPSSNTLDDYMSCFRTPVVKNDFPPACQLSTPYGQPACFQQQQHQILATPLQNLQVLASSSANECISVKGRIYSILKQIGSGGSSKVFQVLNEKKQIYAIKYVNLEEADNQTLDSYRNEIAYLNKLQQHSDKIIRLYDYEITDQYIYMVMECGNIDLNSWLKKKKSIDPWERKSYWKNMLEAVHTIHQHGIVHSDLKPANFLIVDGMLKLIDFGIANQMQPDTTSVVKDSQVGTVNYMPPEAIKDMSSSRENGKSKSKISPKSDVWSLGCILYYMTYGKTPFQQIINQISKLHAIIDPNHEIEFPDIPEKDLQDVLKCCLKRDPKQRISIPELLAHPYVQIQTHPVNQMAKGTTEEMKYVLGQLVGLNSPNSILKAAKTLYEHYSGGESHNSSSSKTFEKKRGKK
In words: Mps-1 kinase assay (HTRF). Type of experiment: biochemical. The settings on record: lowATP; mean; read-out: Mps1 lowATP mean IC50. A digest of the protocol: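 HTRF readout: EDTA-stopped reactions incubated 1 h with europium anti-phospho(Ser/Thr) antibody and streptavidin-XLent, emission ratio 665/620 nm after 350 nm excitation. Kinase step: compound pre-bound 15 min to ~1 nM GST-Mps-1, then 60 min at 22 °C with ATP and biotin-peptide substrate; inhibition scaled between no-inhibitor (0%) and no-enzyme (100%) controls.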
For orientation: TR-FRET usually uses a lanthanide donor and a delayed reading to cut background.
The term IC50 denotes the concentration that gives 50% inhibition. On to `O=C(NC1CC1)c1ccc(-c2cnc3c(NCC(O)CO)nc4cc(F)c(F)cc4n23)cc1` (stereo not shown) [Example 2-113, N-cyclopropyl-4-{4-[(2,3-dihydroxypropyl)amino]-7,8-difluoroimidazo[1,2-a]quinoxalin-1-yl}benzamide], for which the concentration for half-maximal inhibition (IC50) was found to be 197 nM.
Take `CCCNc1nc2cc(C#N)ccc2n2c(-c3ccc(C(=O)NC4CC4)c(Cl)c3)cnc12` [Example 2-234, 2-chloro-4-[7-cyano-4-(propylamino)imidazo[1,2-a]quinoxalin-1-yl]-N-cyclopropylbenzamide]: the IC50 was determined as 810 nM.
`CNC(=O)Nc1ccc(-c2cnc3c(NCc4cnn(C)c4)nc4cc(C)c(C)cc4n23)cc1` [Example 2-176, 1-[4-(7,8-dimethyl-4-{[(1-methyl-1H-pyrazol-4-yl)methyl]amino}imidazo[1,2-a]quinoxalin-1-yl)phenyl]-3-methylurea]: the IC50 amounted to 616 nM.
For `CC(C)CNc1nc2ccccc2n2c(-c3cnn(C)c3)cnc12` [Example 1-18, N-(2-methylpropyl)-1-(1-methyl-1H-pyrazol-4-yl)imidazo[1,2-a]quinoxalin-4-amine], the IC50 stood at 12100 nM.
For the molecule `Cc1cc2nc(NCc3ccn(C)n3)c3ncc(-c4ccc(C(=O)NC5CC5)c(Cl)c4)n3c2cc1C` [Example 2-198, 2-chloro-N-cyclopropyl-4-(7,8-dimethyl-4-{[(1-methyl-1H-pyrazol-3-yl)methyl]amino}imidazo[1,2-a]quinoxalin-1-yl)benzamide], the 50% inhibitory concentration (IC50) was found to be 127 nM.
Regarding `NS(=O)(=O)c1ccc(CNc2nc3ccccc3n3c(-c4ccc(C(=O)NC5CC5)cc4)cnc23)cc1` [Example 2-25, N-cyclopropyl-4-{4-[(4-sulfamoylbenzyl)amino]imidazo[1,2-a]quinoxalin-1-yl}benzamide], the IC50 worked out at 160 nM.
The figure for `CNC(=O)Nc1ccc(-c2cnc3c(NCCS(N)(=O)=O)nc4cc(C)c(C)cc4n23)cc1` [Example 2-177, 2-[(7,8-dimethyl-1-{4-[(methylcarbamoyl)amino]phenyl}imidazo[1,2-a]quinoxalin-4-yl)amino]ethanesulfonamide] is 2240 nM.
Take `Cc1cc2nc(NC[C@@H](O)CO)c3ncc(-c4ccc(C(=O)NC5CC5)cc4)n3c2cc1C` (stereo in doubt) [Example 2-158, N-cyclopropyl-4-{4-[(2,3-dihydroxypropyl)amino]-7,8-dimethylimidazo[1,2-a]quinoxalin-1-yl}benzamide]: the IC50 was 12.4 nM.
On to `COCCNc1nc2cc(F)c(F)cc2n2c(-c3ccc(C(=O)NC4CC4)cc3)cnc12` [Example 2-94, N-cyclopropyl-4-{7,8-difluoro-4-[(2-methoxyethyl)amino]imidazo[1,2-a]quinoxalin-1-yl}benzamide], for which the half-inhibitory concentration (IC50) was 161 nM.
Next, `O=C(NC1CC1)c1ccc(-c2cnc3c(NCc4ccccc4F)nc4cc(F)c(F)cc4n23)cc1Cl` [Example 2-127, 2-chloro-N-cyclopropyl-4-{7,8-difluoro-4-[(2-fluorobenzyl)amino]imidazo[1,2-a]quinoxalin-1-yl}benzamide]: 3810 nM; `N#Cc1ccc2c(c1)nc(NCCCO)c1ncc(-c3ccc(C(=O)NC4CC4)c(Cl)c3)n12` [Example 2-242, 2-chloro-4-{7-cyano-4-[(3-hydroxypropyl)amino]imidazo[1,2-a]quinoxalin-1-yl}-N-cyclopropylbenzamide]: 3780 nM.
For the molecule `Cc1cc2nc(NCc3ccn(C)n3)c3ncc(-c4ccc(C(=O)NC5CC5)cc4)n3c2cc1C` [Example 2-156, N-cyclopropyl-4-(7,8-dimethyl-4-{[(1-methyl-1H-pyrazol-3-yl)methyl]amino}imidazo[1,2-a]quinoxalin-1-yl)benzamide], the IC50 came to 8.49 nM.
Next, `CC(C)CNc1nc2ccccc2n2c(-c3ccc(C(=O)NCCS(N)(=O)=O)cc3)cnc12` [Example 3-26, 4-{4-[(2-methylpropyl)amino]imidazo[1,2-a]quinoxalin-1-yl}-N-(2-sulfamoylethyl)benzamide]: 5860 nM; `N#Cc1ccc2c(c1)nc(NCC(O)CO)c1ncc(-c3ccc(C(=O)NC4CC4)cc3)n12` (stereo not shown) [Example 2-222, 4-{7-cyano-4-[(2,3-dihydroxypropyl)amino]imidazo[1,2-a]quinoxalin-1-yl}-N-cyclopropylbenzamide]: 127 nM.
The figure for `CC(=O)NCCNc1nc2cc(F)c(F)cc2n2c(-c3ccc(C(=O)NC4CC4)c(Cl)c3)cnc12` [Example 2-132, 4-(4-{[2-(acetylamino)ethyl]amino}-7,8-difluoroimidazo[1,2-a]quinoxalin-1-yl)-2-chloro-N-cyclopropylbenzamide] is 7740 nM.
As to `CC(C)CNc1nc2ccccc2n2c(-c3ccc(C(=O)NC(C)CO)cc3)cnc12` (stereo not shown) [Example 3-15, N-(1-hydroxypropan-2-yl)-4-{4-[(2-methylpropyl)amino]imidazo[1,2-a]quinoxalin-1-yl}benzamide], the half-inhibitory concentration (IC50) is 1090 nM.
As to `O=C(NC1CC1)c1ccc(-c2cnc3c(NCCCN4CCCC4=O)nc4ccc(F)cc4n23)cc1Cl` [Example 2-77, 2-chloro-N-cyclopropyl-4-(8-fluoro-4-{[3-(2-oxopyrrolidin-1-yl)propyl]amino}imidazo[1,2-a]quinoxalin-1-yl)benzamide], the half-inhibitory concentration (IC50) was 10100 nM.
For the molecule `CCCCNc1nc2cc(F)c(F)cc2n2c(-c3ccc(C(=O)NC4CC4)cc3)cnc12` [Example 2-101, 4-[4-(butylamino)-7,8-difluoroimidazo[1,2-a]quinoxalin-1-yl]-N-cyclopropylbenzamide], the IC50 amounted to 28.3 nM.
As to `Cn1nccc1CNc1nc2cc(C#N)ccc2n2c(-c3ccc(C(=O)NC4CC4)c(Cl)c3)cnc12` [Example 2-252, 2-chloro-4-(7-cyano-4-{[(1-methyl-1H-pyrazol-5-yl)methyl]amino}imidazo[1,2-a]quinoxalin-1-yl)-N-cyclopropylbenzamide], the IC50 turned out to be 852 nM.
With `CC(C)(C)OC(=O)NCCCNc1nc2cc(F)c(F)cc2n2c(-c3ccc(C(=O)NC4CC4)c(Cl)c3)cnc12` [Example 2-140, tert-butyl [3-({1-[3-chloro-4-(cyclopropylcarbamoyl)phenyl]-7,8-difluoroimidazo[1,2-a]quinoxalin-4-yl}amino)propyl]carbamate], the half-inhibitory concentration (IC50) was 3410 nM.
On to `CC(C)CNc1nc2ccccc2n2c(-c3ccc(C(N)=O)cc3)cnc12` [Example 1-15, 4-{4-[(2-methylpropyl)amino]imidazo[1,2-a]quinoxalin-1-yl}benzamide], for which the IC50 was found to be 399 nM.
Next, `Cn1ccc(CNc2nc3cc(F)c(F)cc3n3c(-c4ccc(C(=O)NC5CC5)cc4)cnc23)n1` [Example 2-109, N-cyclopropyl-4-(7,8-difluoro-4-{[(1-methyl-1H-pyrazol-3-yl)methyl]amino}imidazo[1,2-a]quinoxalin-1-yl)benzamide]: 256 nM; `Cn1cc(CNc2nc3cc(F)c(F)cc3n3c(-c4ccc(C(=O)NC5CC5)c(Cl)c4)cnc23)cn1` [Example 2-142, 2-chloro-N-cyclopropyl-4-(7,8-difluoro-4-{[(1-methyl-1H-pyrazol-4-yl)methyl]amino}imidazo[1,2-a]quinoxalin-1-yl)benzamide]: 2280 nM; `O=C(NC1CC1)c1ccc(-c2cnc3c(NCCCN4CCOCC4)nc4ccccc4n23)cc1` [Example 2-2, N-cyclopropyl-4-(4-{[3-(morpholin-4-yl)propyl]amino}imidazo[1,2-a]quinoxalin-1-yl)benzamide]: 396 nM.
With `CNC(=O)Nc1ccc(-c2cnc3c(NCCNC(C)=O)nc4cc(C#N)ccc4n23)cc1` [Example 2-228, N-{2-[(7-cyano-1-{4-[(methylcarbamoyl)amino]phenyl}imidazo[1,2-a]quinoxalin-4-yl)amino]ethyl}acetamide], the IC50 was found to be 9780 nM.
Next, `CNC(=O)Nc1ccc(-c2cnc3c(NCCS(N)(=O)=O)nc4ccc(F)cc4n23)cc1` [Example 2-73, 2-[(8-fluoro-1-{4-[(methylcarbamoyl)amino]phenyl}imidazo[1,2-a]quinoxalin-4-yl)amino]ethanesulfonamide]: 9910 nM; `N#Cc1ccc2c(c1)nc(NCCCN1CCOCC1)c1ncc(-c3ccc(C(=O)NC4CC4)cc3)n12` [Example 2-205, 4-(7-cyano-4-{[3-(morpholin-4-yl)propyl]amino}imidazo[1,2-a]quinoxalin-1-yl)-N-cyclopropylbenzamide]: 413 nM.
The figure for `CC(C)CNc1nc2ccccc2n2c(-c3ccc(NC(=O)Nc4ccc(CN5CCN(C)CC5)c(C(F)(F)F)c4)cc3)cnc12` [Example 1-1, 1-[4-(4-isobutylamino-imidazo[1,2-a]quinoxalin-1-yl)-phenyl]-3-[4-(4-methyl-piperazin-1-ylmethyl)-3-trifluoromethyl-phenyl]-urea] is 55.9 nM.
